Reference: patent publication EP0297815B1, “Fluorine containing renin inhibitors” (PFIZER INC., priority 1987, dated 1989)

Target: T1, renin (Homo sapiens, UniProt P00797)
T1 sequence (P00797 67-406): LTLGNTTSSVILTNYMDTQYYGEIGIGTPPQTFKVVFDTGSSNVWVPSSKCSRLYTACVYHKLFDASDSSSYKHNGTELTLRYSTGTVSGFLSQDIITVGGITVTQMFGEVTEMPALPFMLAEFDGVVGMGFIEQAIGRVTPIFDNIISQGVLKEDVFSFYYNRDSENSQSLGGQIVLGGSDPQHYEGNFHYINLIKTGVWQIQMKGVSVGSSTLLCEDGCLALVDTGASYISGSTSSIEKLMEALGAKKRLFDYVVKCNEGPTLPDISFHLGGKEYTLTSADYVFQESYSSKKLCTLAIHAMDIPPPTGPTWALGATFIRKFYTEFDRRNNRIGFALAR
Assay: renin inhibitory potency
Type: biochemical
Details: compared with the more retained 2R,5R isomer separated by HPLC
Source text: The activity of the compounds of the present invention as inhibitors of the angiotensinogen-cleaving activity of renin may be determined by studying (1) their ability to inhibit the angiotensinogen-cleaving activity of renin in vitro and (2) their ability to antagonize the exogenous renin-induced pressor response in vivo.

renin inhibitory potency: more active
SMILES: CCCC[C@H](NC(=O)[C@H](Cc1ccccc1)NC(=O)N1CCOCC1)C(=O)N[C@@H](CC1CCCCC1)C(=O)C(F)(F)[C@@H](CC(C)C)C(=O)OCC [2S,5S product, ethyl (2S,5S)-2-isobutyl-3,3-difluoro-4-keto-5-N-(N-[morpholinocarbonyl-L-phenylalanyl]-L-norleucyl)-amino-6-cyclohexylhexanoate]
